The source of these data is publication PMC9851200, “Multiparameter phenotypic screening for endogenous TFEB and TFE3 translocation identifies novel chemical series modulating lysosome function” (Autophagy, 2022).

Structures are written as SMILES. Read-outs that look alike come from different tables or passages of the source.

Holding throughout (conditions): PKIS2 primary screening
The subject of series [1] is SH-SY5Y cells.
Excerpt: The PKIS2 Library was supplied by The Structural Genomics Consortium at the University of North Carolina at Chapel Hill.
The test system of another series is endogenous TFE3. As to the kind of experiment: TFE3 nuclear translocation, immunocytochemistry high-content imaging. The format is cell-based.
For the next series, the system named is endogenous TFEB. As to the kind of experiment: TFEB nuclear translocation, immunocytochemistry high-content imaging. The series is classed as cell-based.
Series [2] relates to SH-SY5Y cells. As to the kind of experiment: AK (adenylate kinase) release ToxiLight cytotoxicity assay. Note: reference of the scale not given here.
In series [3] the test system is SH-SY5Y cells. Kind of series: Nuclear count from microscopy images (cellular growth and toxicity). Note: reference of the scale not given here.
Throughout, for DQ Intensity: reference of the scale not given here.
Throughout, for DQ Spot: reference of the scale not given here.

As for `CN1CCN(Cc2ccc(NC(=O)Nc3ccc(N(C)c4ccnc(Nc5ccc(CS(C)(=O)=O)cc5)n4)cc3)cc2)CC1` [GW827654], the “DQ Intensity” value in the series on SH-SY5Y cells [1] (DQ Red BSA intensity) came to 92.35. Moreover, the “DQ Spot” value in the series on SH-SY5Y cells [1] (DQ Red BSA spot count) was found to be 93.05. Moreover, in the series with endogenous TFE3, the TFE3 % is on record as 10.58%. The TFEB % with endogenous TFEB is reported as 6.08%. The same compound came in with an AK in the series with SH-SY5Y cells [2] of 74.74. The “Nuclear Count” value in the series with SH-SY5Y cells [3] is given as 120.62.

On to `CN(c1ccc(NC(=O)Nc2cccc(Cl)c2)cc1)c1ccnc(N)n1` [GW830707], for which, in the series on SH-SY5Y cells [1] (DQ Red BSA intensity), the “DQ Intensity” value turned out to be 86.00. Moreover, the “DQ Spot” value with SH-SY5Y cells [1] (DQ Red BSA spot count) turned out to be 87.81. This compound displayed a TFE3 % in the series with endogenous TFE3 of 9.81%. Moreover, in the series with endogenous TFEB, the TFEB % was 11.00%. For the same compound, the AK in the series on SH-SY5Y cells [2] worked out at 94.92. In addition, the “Nuclear Count” value with SH-SY5Y cells [3] is listed as 115.77.

Regarding `CN(c1ccc(NC(=O)N2CCN(CCCN3CCOCC3)CC2)cc1)c1ccnc(Nc2ccc(CS(C)(=O)=O)cc2)n1` [GW830899], in the series with SH-SY5Y cells [1] (DQ Red BSA intensity), the “DQ Intensity” value is recorded as 91.97. Also, the “DQ Spot” value in the series on SH-SY5Y cells [1] (DQ Red BSA spot count) came out at 98.21. In the series on endogenous TFE3, this compound returned a TFE3 % of 11.27%. For the same compound, the TFEB % in the series with endogenous TFEB amounted to 7.11%. Further, the AK with SH-SY5Y cells [2] turned out to be 75.66. The “Nuclear Count” value with SH-SY5Y cells [3] stood at 123.35.

For `O=C(Nc1n[nH]c2cc(-c3ccccc3F)ccc12)C1CC1` [SB-733371], the “DQ Intensity” value in the series on SH-SY5Y cells [1] (DQ Red BSA intensity) amounted to 129.64. In the series on SH-SY5Y cells [1] (DQ Red BSA spot count), the “DQ Spot” value is listed as 114.49. The same compound returned a TFE3 % with endogenous TFE3 of 7.51%. Also, the TFEB % in the series with endogenous TFEB stood at 4.96%. Further, in the series with SH-SY5Y cells [2], the AK was 88.17. Further, the “Nuclear Count” value in the series with SH-SY5Y cells [3] is listed as 133.33.

As for `O=C(Nc1n[nH]c2cc(-c3cccc(F)c3F)ccc12)C1CC1` [SB-733894], the “DQ Intensity” value with SH-SY5Y cells [1] (DQ Red BSA intensity) is listed as 66.38. Besides, the “DQ Spot” value with SH-SY5Y cells [1] (DQ Red BSA spot count) is listed as 85.29. Moreover, the TFE3 % in the series with endogenous TFE3 is 15.11%. In addition, the TFEB % in the series with endogenous TFEB is 5.04%. In the series on SH-SY5Y cells [2], this compound registered an AK of 80.72. Besides, the “Nuclear Count” value with SH-SY5Y cells [3] stood at 112.33.

`O=C(Nc1n[nH]c2cc(-c3ccco3)ccc12)C1CC1` [SB-737447]: in the series on SH-SY5Y cells [1] (DQ Red BSA intensity), the “DQ Intensity” value is given as 79.02. Besides, the “DQ Spot” value in the series on SH-SY5Y cells [1] (DQ Red BSA spot count) was determined as 97.06. Moreover, the TFE3 % in the series with endogenous TFE3 is listed as 9.47%. In the series with endogenous TFEB, the TFEB % stood at 10.40%. Further, the AK with SH-SY5Y cells [2] was found to be 119.40. Also, in the series with SH-SY5Y cells [3], the “Nuclear Count” value is listed as 114.46.

On to `O=C(Nc1n[nH]c2nc(-c3ccco3)c(Br)cc12)c1ccc(CN2CCCC2)cc1` [SB-742352], for which, in the series with SH-SY5Y cells [1] (DQ Red BSA intensity), the “DQ Intensity” value turned out to be 92.66. Besides, the “DQ Spot” value in the series with SH-SY5Y cells [1] (DQ Red BSA spot count) turned out to be 91.08. Besides, the TFE3 % with endogenous TFE3 came to 19.33%. The same compound had a TFEB % in the series with endogenous TFEB of 7.90%. Moreover, the AK in the series on SH-SY5Y cells [2] was found to be 95.96. Besides, the “Nuclear Count” value with SH-SY5Y cells [3] stood at 100.71.

As for `Cl.NS(=O)(=O)c1cccc(Nc2cc(-c3ccc(F)cc3)n[nH]2)c1` [UNC10112764A], the “DQ Intensity” value in the series on SH-SY5Y cells [1] (DQ Red BSA intensity) is on record as 118.54. Moreover, in the series on SH-SY5Y cells [1] (DQ Red BSA spot count), the “DQ Spot” value was determined as 103.52. Moreover, the TFE3 % in the series on endogenous TFE3 was 14.81%. The compound also had a TFEB % in the series with endogenous TFEB of 1.30%. This compound yielded an AK with SH-SY5Y cells [2] of 125.30. Also, in the series with SH-SY5Y cells [3], the “Nuclear Count” value is given as 80.49.

`CCn1c(-c2nonc2N)nc2ccccc21` [UNC10112830A]: in the series on SH-SY5Y cells [1], the “DQ Intensity” value turned out to be 143.39 and the “DQ Spot” value is reported as 111.62. The compound also had a TFE3 % in the series on endogenous TFE3 of 10.17%. In addition, the TFEB % in the series on endogenous TFEB was determined as 9.19%. In the series with SH-SY5Y cells [2], the AK came to 85.29. Besides, the “Nuclear Count” value in the series on SH-SY5Y cells [3] amounted to 114.37.

In the case of `Cc1ccc(NC(=O)c2ccc(Cl)cc2)cc1-c1ccc(C(=O)Nc2ccncc2)cc1` [UNC10224985A], in the series on SH-SY5Y cells [1], the “DQ Intensity” value is on record as 77.83 and the “DQ Spot” value is 81.57. Moreover, the TFE3 % with endogenous TFE3 was determined as 13.44%. Moreover, the TFEB % in the series on endogenous TFEB was determined as 7.14%. For the same compound, the AK in the series on SH-SY5Y cells [2] was found to be 72.98. For the same compound, the “Nuclear Count” value in the series on SH-SY5Y cells [3] amounted to 119.79.

`O=C(NCC1CC1)c1ccc(-c2cc(C(=O)NC3CC3)ccc2F)cc1` [UNC10224986A]: in the series with SH-SY5Y cells [1], the “DQ Intensity” value is 92.71 and the “DQ Spot” value is on record as 109.74. In the series on endogenous TFE3, this compound came in with a TFE3 % of 10.56%. Besides, the TFEB % in the series on endogenous TFEB stood at 5.16%. The same compound displayed an AK with SH-SY5Y cells [2] of 72.27. In addition, the “Nuclear Count” value in the series on SH-SY5Y cells [3] is recorded as 97.72.
